Experiments:
S. aureus Newman [1] = experiment: Bliss interaction score (quartile over a dose matrix) (fitness difference); higher = more antagonism (negative = synergy)
Summary of the method: (§1)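 Quartiles summarise the Bliss score over technical, biological and donor/recipient replicates, where the score is observed minus expected fitness under a product model. Expected fitness uses single-drug values inferred from combination data. Fitness is OD595 at entry into stationary phase over the plate's robust no-drug mean, capped at 1.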

S. pneumoniae D39V [2] = experiment: as above
Summary of the method: as §1

S. aureus DSM 20231 [3] = experiment: as above
Summary of the method: as §1

B. subtilis 168 [4] = experiment: as above
Summary of the method: as §1

S. aureus Newman [5] = experiment: fitness (endpoint OD595 vs no drug) (fraction); higher = more growth; conditions: one replicate
Summary of the method: (§2)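 Each well of a 384-well plate received 30 µl of culture at OD595 0.01, or 55 µl for S. pneumoniae. TSB, LB Lennox or CY served as media at 37 °C. OD595 was taken every 30 min for 14 h and corrected by subtracting the first reading. Fitness is the optical density at stationary-phase entry divided by the robust mean of no-drug controls, capped at 1.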

S. pneumoniae D39V [6] = experiment: as above
Summary of the method: as §2

S. aureus DSM 20231 [7] = experiment: as above
Summary of the method: as §2

B. subtilis 168 [8] = experiment: as above
Summary of the method: as §2
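Throughout, for Bliss interaction score (quartile over a dose matrix): first quartile when negative (synergy) and third quartile when positive (antagonism).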

CO/N=C(\C(=O)N[C@@H]1C(=O)N2C(C(=O)O)=C(COC(C)=O)CS[C@H]12)c1csc(N)n1 [Cefotaxime] + CC1=C\[C@@H](O)CC(=O)Cc2nc(co2)C(=O)N2CCC=C2C(=O)O[C@H](C(C)C)[C@H](C)/C=C/C(=O)NC\C=C\1 [Virginiamycin M1]
Conditions	Bliss interaction score
B. subtilis 168 [4]	0.0729
S. aureus DSM 20231 [3]	0.0452
S. aureus Newman [1]	-0.0479
S. pneumoniae D39V [2]	-0.0315

fitness
Conditions	partner 0.0625 µg/mL	partner 0.125 µg/mL	partner 0.25 µg/mL	partner 0.5 µg/mL	partner 1 µg/mL	partner 2 µg/mL
B. subtilis 168 [8], first compound 0.5 µg/mL	0.23	0.246	0.239	–	–	–
B. subtilis 168 [8], first compound 1 µg/mL	0.085	0.0947	0.119	–	–	–
B. subtilis 168 [8], first compound 2 µg/mL	0.0507	0.082	0.0814	–	–	–
S. aureus DSM 20231 [7], first compound 0.078 µg/mL	0.678	0.784	0.776	–	–	–
S. aureus DSM 20231 [7], first compound 0.156 µg/mL	0.711	0.83	0.741	–	–	–
S. aureus DSM 20231 [7], first compound 0.312 µg/mL	0.683	0.694	0.676	–	–	–
S. aureus Newman [5], first compound 0.039 µg/mL	–	–	–	0.71	0.72	0.732
S. aureus Newman [5], first compound 0.078 µg/mL	0.699	0.716	0.734	0.672	0.687	0.57
S. aureus Newman [5], first compound 0.156 µg/mL	0.494	0.468	0.509	0.648	0.613	0.444
S. aureus Newman [5], first compound 0.312 µg/mL	0.305	0.326	0.307	0.57	0.54	0.344
S. aureus Newman [5], first compound 0.625 µg/mL	0.0023	0.0438	0.039	–	–	–
S. aureus Newman [5], first compound 1.25 µg/mL	0.0272	0.0702	0.0726	–	–	–
S. aureus Newman [5], first compound 2.5 µg/mL	0.0428	0.0329	0.0641	–	–	–
S. pneumoniae D39V [6], first compound 0.0018 µg/mL	–	–	–	0.991	1	0.947
S. pneumoniae D39V [6], first compound 0.0035 µg/mL	–	–	–	0.975	0.95	0.966
S. pneumoniae D39V [6], first compound 0.007 µg/mL	–	–	–	0.916	0.957	0.917

one replicate
Conditions	fitness
B. subtilis 168 [8], first compound 0.00775 µg/mL, partner 0.0625 µg/mL	0.854
B. subtilis 168 [8], first compound 0.00775 µg/mL, partner 0.125 µg/mL	0.833
B. subtilis 168 [8], first compound 0.00775 µg/mL, partner 0.25 µg/mL	0.833
B. subtilis 168 [8], first compound 0.0155 µg/mL, partner 0.0625 µg/mL	0.695
B. subtilis 168 [8], first compound 0.0155 µg/mL, partner 0.125 µg/mL	0.683
B. subtilis 168 [8], first compound 0.0155 µg/mL, partner 0.25 µg/mL	0.673
B. subtilis 168 [8], first compound 0.031 µg/mL, partner 0.0625 µg/mL	0.554
B. subtilis 168 [8], first compound 0.031 µg/mL, partner 0.125 µg/mL	0.557
B. subtilis 168 [8], first compound 0.031 µg/mL, partner 0.25 µg/mL	0.583
S. aureus DSM 20231 [7], first compound 0.039 µg/mL, partner 0.0625 µg/mL	0.775
S. aureus DSM 20231 [7], first compound 0.039 µg/mL, partner 0.125 µg/mL	0.779
S. aureus DSM 20231 [7], first compound 0.039 µg/mL, partner 0.25 µg/mL	0.762
S. aureus DSM 20231 [7], first compound 0.078 µg/mL, partner 0.5 µg/mL	0.778
S. aureus DSM 20231 [7], first compound 0.078 µg/mL, partner 1 µg/mL	0.799
S. aureus DSM 20231 [7], first compound 0.156 µg/mL, partner 0.5 µg/mL	0.742
S. aureus DSM 20231 [7], first compound 0.156 µg/mL, partner 1 µg/mL	0.699
S. aureus DSM 20231 [7], first compound 0.312 µg/mL, partner 0.5 µg/mL	0.61
S. aureus DSM 20231 [7], first compound 0.312 µg/mL, partner 1 µg/mL	0.706
S. pneumoniae D39V [6], first compound 0.0018 µg/mL, partner 0.15 µg/mL	≥ 1
S. pneumoniae D39V [6], first compound 0.0018 µg/mL, partner 0.3 µg/mL	0.976
S. pneumoniae D39V [6], first compound 0.0035 µg/mL, partner 0.15 µg/mL	≥ 1
S. pneumoniae D39V [6], first compound 0.0035 µg/mL, partner 0.3 µg/mL	≥ 1
S. pneumoniae D39V [6], first compound 0.007 µg/mL, partner 0.15 µg/mL	≥ 1
S. pneumoniae D39V [6], first compound 0.007 µg/mL, partner 0.3 µg/mL	0.952
